# Test results from ChEMBL document CHEMBL5131456, “Amyloidogenic immunoglobulin light chain kinetic stabilizers comprising a simple urea linker module reveal a novel binding sub-site” (Bioorg Med Chem Lett, 2022).
# Tests used:
# [1] = Stabilization of fluorescein-labelled amyloidogenic full length immunoglobulin light chain dimer (unknown origin) assessed as concentration of stabilizer that affords 50% maximal proteinase K protection by protease coupled fluorescence polarization assay; design: species or system Homo sapiens
# Homo sapiens = species: Homo sapiens; test: Stabilization of unlabeled amyloidogenic full length immunoglobulin light chain dimer (unknown origin) assessed as fold proteinase K protection at 10 uM by size-exclusion chromatography
# [2] = Stabilization of fluorescein-labelled amyloidogenic full length immunoglobulin light chain dimer T46L/F49Y mutant (unknown origin) assessed as concentration of stabilizer that affords 50% maximal proteinase K protection by protease coupled fluorescence polarization assay; design: species or system Homo sapiens
SMILES,EC50 [1] [nM],fold change (FC) (Homo sapiens),EC50 [2] [nM]
CCN(CC)c1ccc2c(C)c(CCC(=O)NCCN(C)C)c(=O)oc2c1,6800,0.13,> 10000
CCN(CC)c1ccc2c(C)c(CCNC(=O)NCc3cccnc3)c(=O)oc2c1,462,0.66,810
CCN(CC)c1ccc2c(C)c(CCNC(=O)NCc3ccc4ccccc4c3)c(=O)oc2c1,111,0.66,27.4
CCN(CC)c1ccc2c(C)c(CCNC(=O)NCc3cncc4ccccc34)c(=O)oc2c1,233,0.74,377
CCN(CC)c1ccc2c(C)cc(=O)oc2c1,–,0.28,–
CCN(CC)c1ccc2c(C)c(CCNC(=O)NCCc3cccnc3)c(=O)oc2c1,1040,0.5,2050
CCN(CC)c1ccc2c(C)c(CCNC(=O)CCc3ccccc3)c(=O)oc2c1,490,0.17,513
CCN(CC)c1ccc2c(C)c(CC(=O)NCCc3ccccc3)c(=O)oc2c1,1830,0.28,853
CCN(CC)c1ccc2c(C)c(CCNC(=O)CCc3cccnc3)c(=O)oc2c1,1180,0.55,1610
CCN(CC)c1ccc2c(C)c(CCNC(=O)NCc3cccc(-c4c[nH]cn4)c3)c(=O)oc2c1,140,0.81,74.1
CCN(CC)c1ccc2c(C)c(CCC(=O)NCCc3cccnc3)c(=O)oc2c1,634,0.61,2110
CCN(CC)c1ccc2c(C)c(CCOC(=O)NCc3cccc(-c4c[nH]cn4)c3)c(=O)oc2c1,–,0.91,–
CCN(CC)c1ccc2c(C)c(CC(=O)NCCN(C)C)c(=O)oc2c1,1750,0.39,2660
CCN(CC)c1ccc2c(C)c(CCNC(=O)NCc3ccccc3)c(=O)oc2c1,348,0.69,381
